Key:
DIO mice = experiment: Weight loss effect in DIO mice obesity model; assay type: in vivo; design: Cumulative food intake / Fasting blood glucose / Insulin / Serum TC / ALT: unit not given here; settings: for Insulin resistance index / Serum TC / Fasting blood glucose / Insulin / Body weight / Cumulative food intake / Liver Weight / ALT: Mean±SEM, 10 mice; for Insulin: D30 serum; for Body weight / Cumulative food intake / Liver Weight / Total abdominal fat: s.c. once every 3 days for 4 weeks; for Total abdominal fat: sum of perirenal and paratesticular fat; for ALT: serum
Method: In this study, 26-week-old male DIO mice were used. DIO mice were housed in appropriate cages. DIO mice were housed in an environment-monitored and well-ventilated SPF-grade animal room, with the temperature maintained between 20 and 26°C and relative humidity between 40% and 70%. […] The mice received food and water ad libitum. […] The mice were subcutaneously administrated once every 3 days for 4 consecutive weeks. […] Food intake was measured once daily after administration. RBG was measured before grouping and at 48 h after each administration. After fasted for 5 h on D30 (no water deprivation was required), FBG and glycated hemoglobin A1c (HbA1c) were detected, and blood was collected intravenously to separate the serum. A mouse insulin ELISA kit was used to detect the insulin content in the serum, and a biochemistry analyser was used to detect total cholesterol (TC), TG, low-density lipoprotein cholesterol (LDL), high-density lipoprotein cholesterol (HDL), free fatty acid (FFA), ALT, and aspartate aminotransferase (AST) content. The liver was collected, the perirenal and paratesticular fat tissues were separated and weighed, the organ-body ratio was calculated. The liver was stained with HE and Oil Red O for pathological scoring. The data results were statistically analyzed using one-way analysis of variance (ANOVA). A Levene's test was performed to test for variance homogeneity. If the result was homogeneous (P>0.05), a one-way analysis of variance (ANOVA) would be performed. […] In the case of heterogeneity of variance (P ≤0.05 ), a Dunnett's T3 test would be performed. Results were expressed as mean and standard deviation (Mean ± SEM). The test level was 0.05. Both statistical significance and biological significance were considered when analyzing the results.

rabbit GIPR = target: T1, rabbit GIPR (Oryctolagus cuniculus, UniProt G1T265); experiment: Agonistic activity on GIPR of different species (LANCE Ultra cAMP assay): rabbit; assay type: cell-based; settings: ratio of EC50 value of other species to human EC50 value
T1 construct: expressed in transfected cells; host or cells: CHO-K1 (transient)
T1 sequence (G1T265 23-468): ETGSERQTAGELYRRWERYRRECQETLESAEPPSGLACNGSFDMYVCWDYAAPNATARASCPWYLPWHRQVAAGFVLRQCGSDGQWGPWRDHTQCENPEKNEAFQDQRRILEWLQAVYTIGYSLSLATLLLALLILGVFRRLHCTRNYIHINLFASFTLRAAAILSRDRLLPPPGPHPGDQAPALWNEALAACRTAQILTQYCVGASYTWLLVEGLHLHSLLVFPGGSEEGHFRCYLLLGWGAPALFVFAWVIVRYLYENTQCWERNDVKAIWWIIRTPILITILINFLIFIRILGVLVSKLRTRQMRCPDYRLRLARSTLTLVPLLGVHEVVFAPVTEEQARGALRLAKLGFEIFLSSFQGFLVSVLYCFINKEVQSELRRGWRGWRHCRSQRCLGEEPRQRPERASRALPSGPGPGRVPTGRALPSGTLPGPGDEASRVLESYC
Method: CHO-K1 cells were seeded in a 6-well plate at 0.6×10^6 cells/well and incubated overnight in an incubator at a temperature of 37 °C and a carbon dioxide concentration of 5%. The next day, CHO-K1 cell media were replaced. Then two tubes A and B were prepared for each plasmid. 100 µL Opti-MEM was added to tube A, then 4 µL Lipofectamine™ 3000 was added and mixed uniformly. 100 µL Opti-MEM was firstly added to tube B, then 2 µg of one of the plasmids (human GIPR-pcDNA5 (+) plasmid, dog GIPR-pcDNA5 (+) plasmid, mouse GIPR-pcDNA5 (+) plasmid, rat GIPR-pcDNA5 (+) plasmid, rabbit GIPR-pcDNA5 (+) plasmid, monkey GIPR-pcDNA5 (+) plasmid) was added and mixed uniformly, and 4 µL P3000™ was added to tube B and mixed uniformly (the ratio of plasmid to transfection reagent was 1 µg: 2 µL). […]
18-20 hours after transfection, human GIPR-CHO, dog GIPR-CHO, mouse GIPR-CHO, rat GIPR-CHO, rabbit GIPR-CHO, and monkey GIPR-CHO cells were resuspended in 1×Casein Stimulation Buffer (HBSS, 5 mM HEPES, 0.5 mM IBMX, 0.1% casein, pH7.4), and seeded into a 384-well cell culture plate at 9 µL/well (cell numbers being 1000, 2000, 2000, 2000, 2000, 2000 cells/well, respectively). […] The readings at 665 nm and 620 nm were determined with a 330 nm excitation light on a microplate reader. The 665 nm/620 nm reading ratio was calculated. […]

human GLP-1R = human GLP-1R (Homo sapiens, UniProt P43220); experiment: Agonistic activity on GLP-1R of different species (LANCE Ultra cAMP assay): human; assay type: cell-based; design: expressed in transfected cells; host or cells: HEK293/CRE/GLP-1R clonal cells; settings: ratio of EC50 value of other species to human EC50 value
[1] = 0.3 nmol/kg s.c. once every 3 days
[2] = 1 nmol/kg s.c. once every 3 days
[3] = 3 nmol/kg s.c. once every 3 days
[4] = 30 nmol/kg s.c. once every 3 days

Sequence of human GLP-1R (P43220 24-463): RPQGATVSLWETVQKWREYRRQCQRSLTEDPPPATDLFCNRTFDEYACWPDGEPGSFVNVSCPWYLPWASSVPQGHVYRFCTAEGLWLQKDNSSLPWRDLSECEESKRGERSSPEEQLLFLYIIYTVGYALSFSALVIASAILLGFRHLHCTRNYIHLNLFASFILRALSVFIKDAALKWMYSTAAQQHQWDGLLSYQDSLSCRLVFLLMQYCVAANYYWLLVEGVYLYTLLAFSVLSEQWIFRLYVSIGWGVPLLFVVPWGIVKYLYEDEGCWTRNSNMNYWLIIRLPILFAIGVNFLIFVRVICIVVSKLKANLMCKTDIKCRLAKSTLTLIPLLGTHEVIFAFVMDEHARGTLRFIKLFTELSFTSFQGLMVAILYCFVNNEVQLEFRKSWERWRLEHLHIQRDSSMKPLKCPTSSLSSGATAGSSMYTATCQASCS

CC[C@H](C)[C@H](NC(=O)C(C)(C)NC(=O)[C@H](Cc1ccc(O)cc1)NC(=O)[C@H](CC(=O)O)NC(=O)[C@H](CO)NC(=O)[C@@H](NC(=O)C(C)(Cc1ccccc1)NC(=O)[C@@H](NC(=O)CNC(=O)[C@H](CCC(=O)O)NC(=O)C(C)(C)NC(=O)[C@@H](N)Cc1ccc(O)cc1)[C@@H](C)O)[C@@H](C)O)C(=O)NC(C)(C)C(=O)N[C@@H](CC(C)C)C(=O)N[C@@H](CC(=O)O)C(=O)N[C@@H](CCCCN)C(=O)N[C@@H](CCC(N)=O)C(=O)N[C@@H](C)C(=O)N[C@@H](CCC(N)=O)C(=O)N[C@@H](C)C(=O)N[C@@H](CCC(=O)O)C(=O)N[C@@H](Cc1ccccc1)C(=O)N[C@H](C(=O)N[C@@H](CCCCNC(=O)COCCOCCNC(=O)COCCOCCNC(=O)COCCOCCNC(=O)CC[C@H](NC(=O)CCCCCCCCCCCCCCCCCCCCC(=O)O)C(=O)O)C(=O)N[C@@H](Cc1c[nH]c2ccccc12)C(=O)N[C@@H](CC(C)C)C(=O)N[C@@H](CC(C)C)C(=O)N[C@@H](CCCCN)C(=O)NCC(=O)NCC(=O)N1CCC[C@H]1C(=O)N[C@@H](CO)C(=O)N[C@@H](CO)C(=O)NCC(=O)N[C@@H](C)C(=O)N1CCC[C@H]1C(=O)N1CCC[C@H]1C(=O)N1CCC[C@H]1C(=O)N[C@@H](CO)C(=O)N[C@@H](CCCCN)C(N)=O)C(C)C (some centres unmarked) [Compound P016]
Insulin resistance index (DIO mice; [1]): 43.94±6.288
Serum TC (DIO mice; [1]): 4.07±0.26
Insulin resistance index (DIO mice; [2]): 21.532±3.705
Serum TC (DIO mice; [2]): 3.26±0.20
Insulin resistance index (DIO mice; [3]): 11.991±1.907
Serum TC (DIO mice; [3]): 2.61±0.13
Insulin resistance index (DIO mice; [4]): 5.179±1.178
Serum TC (DIO mice; [4]): 2.50±0.18
Fasting blood glucose (DIO mice; D30, 0.3 nmol/kg s.c. once every 3 days): 13.78±0.39
Fasting blood glucose (DIO mice; D30, 1 nmol/kg s.c. once every 3 days): 11.23±0.40
Fasting blood glucose (DIO mice; D30, 3 nmol/kg s.c. once every 3 days): 10.36±0.67
Fasting blood glucose (DIO mice; D30, 30 nmol/kg s.c. once every 3 days): 8.39±0.30
Insulin (DIO mice; [1]): 3.285±0.481
Insulin (DIO mice; [2]): 1.911±0.29
Insulin (DIO mice; [3]): 1.196±0.185
Insulin (DIO mice; [4]): 0.624±0.130
Body weight (DIO mice; 0.3 nmol/kg): 45.4 ± 1.3 g
Cumulative food intake (DIO mice; 0.3 nmol/kg): 75.75±2.81
Liver Weight (DIO mice; 0.3 nmol/kg): 1.552 ± 0.106 g
Total abdominal fat (DIO mice; 0.3 nmol/kg): 2.631 ± 0.069 g
Body weight (DIO mice; 1 nmol/kg): 38.3 ± 1.1 g
Cumulative food intake (DIO mice; 1 nmol/kg): 61.40±1.58
Liver Weight (DIO mice; 1 nmol/kg): 1.191 ± 0.075 g
Total abdominal fat (DIO mice; 1 nmol/kg): 1.849 ± 0.181 g
Body weight (DIO mice; 3 nmol/kg): 34.1 ± 0.7 g
Cumulative food intake (DIO mice; 3 nmol/kg): 55.47±2.72
Liver Weight (DIO mice; 3 nmol/kg): 1.069 ± 0.029 g
Total abdominal fat (DIO mice; 3 nmol/kg): 0.972 ± 0.076 g
Body weight (DIO mice; 30 nmol/kg): 29 ± 0.7 g
Cumulative food intake (DIO mice; 30 nmol/kg): 48.38±2.31
Liver Weight (DIO mice; 30 nmol/kg): 0.995 ± 0.029 g
Total abdominal fat (DIO mice; 30 nmol/kg): 0.461 ± 0.034 g
ALT (DIO mice; [1]): 95.60±14.09
ALT (DIO mice; [2]): 43.90±3.86
ALT (DIO mice; [3]): 52.80±9.62
ALT (DIO mice; [4]): 49.60±5.67
GIPR EC50 ratio (rabbit GIPR): 5.34
GLP-1R EC50 ratio (human GLP-1R): 1.00
